In test [1] the target is T1, Conserved protein (Mycobacterium tuberculosis) (UniProt O53728).
T1 sequence (whole entry): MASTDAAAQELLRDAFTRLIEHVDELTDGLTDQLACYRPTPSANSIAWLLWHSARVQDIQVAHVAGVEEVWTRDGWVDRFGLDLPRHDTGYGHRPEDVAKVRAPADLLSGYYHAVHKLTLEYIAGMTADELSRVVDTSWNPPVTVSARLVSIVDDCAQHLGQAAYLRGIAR
Description: Binding affinity to Mycobacterium tuberculosis MST assessed as melting temperature by differential scanning fluorimetry method

For test [2], the target named is T1, Conserved protein (Mycobacterium tuberculosis). This is another data set of the same source.
Description: Binding affinity to Mycobacterium tuberculosis MST assessed as melting temperature in presence of zinc by differential scanning fluorimetry method
The target is the same in test [3]. The source holds these as a separate data set.
Description: Binding affinity to Mycobacterium tuberculosis MST assessed as melting temperature in presence of cobalt by differential scanning fluorimetry method
For test [4] the target is unchanged. This is another data set of the same source.
Description: Binding affinity to Mycobacterium tuberculosis MST assessed as melting temperature in presence of nickle by differential scanning fluorimetry method
Test [5] has the same target. This is another data set of the same source.
Description: Binding affinity to Mycobacterium tuberculosis MST assessed as melting temperature in presence of ferrous by differential scanning fluorimetry method
For test [6] the target is unchanged. The source holds these as a separate data set.
Description: Binding affinity to Mycobacterium tuberculosis MST assessed as change in melting temperature in presence of zinc by differential scanning fluorimetry method
Test [7] has the same target. This is another data set of the same source.
Description: Binding affinity to Mycobacterium tuberculosis MST assessed as change in melting temperature in presence of cobalt by differential scanning fluorimetry method
The target is the same in test [8]. The source holds these as a separate data set.
Description: Binding affinity to Mycobacterium tuberculosis MST assessed as change in melting temperature in presence of nickle by differential scanning fluorimetry method
Test [9] shares this target. The source holds these as a separate data set.
Description: Binding affinity to Mycobacterium tuberculosis MST assessed as change in melting temperature in presence of ferrous by differential scanning fluorimetry method

In general, ΔTm refers to the change in melting temperature against a reference sample. As to `CC(=O)N[C@@H](CS)C(=O)N[C@H]1[C@@H](O[C@@H]2[C@H](O)[C@H](O)[C@@H](O)[C@H](O)[C@H]2O)O[C@H](CO)[C@@H](O)[C@@H]1O`, the Tm is 59 °C in test [1]; 71.9 °C in test [2]; 65.1 °C in test [3]; 68.9 °C in [4]; 62.2 °C in test [5]. Moreover, the ΔTm is 12.9 °C in test [6], 6.1 °C in [7], 9.9 °C in [8] and 3.2 °C in test [9].
